Our source for the IC50 values is BindingDB's records for doi:10.1016/j.bmcl.2005.06.067 (Carlsson Research, 2005).

Assay [1] can be described thus: Inhibitory activity against 5-hydroxytryptamine 1D receptor in calf.
Experiment in assay [2]: as above
This is another data set of the same source.

In turn, `CCc1[nH]c2ccc(OC)cc2c1CCN(C)C` [2-ethyl-5-methoxy-N,N-dimethyltryptamine] showed an IC50 in assay [1] of 1400 nM.
Take `COc1ccc2[nH]c(C)c(C3=CCNCC3)c2c1` [5-Methoxy-2-methyl-3-(1,2,3,6-tetrahydro-pyridin-4-yl)-1H-indole]: in assay [2], the IC50 was > 1000 nM.

A word on the IC50: it is the concentration that gives 50% inhibition.
